The values below come from ChEMBL document CHEMBL1136658, “Design and synthesis of potent, non-peptide inhibitors of HCV NS3 protease” (Bioorg Med Chem Lett, 2003).

Each structure is given as a SMILES string. Peptide text beside a SMILES is read from it. * marks the point of attachment. X1 = C=CC[C@H](N*)B1OC2CC3CC(C3(C)C)[C@@]2(C)O1

For the first experiment, the target named is T1, NS3 (Hepatitis C virus, UniProt A3EZJ3). As to the kind of experiment: Inhibitory concentration against HCV NS3 protease. Also on record: species or system Hepacivirus hominis.
T1 sequence (A3EZJ3 whole entry): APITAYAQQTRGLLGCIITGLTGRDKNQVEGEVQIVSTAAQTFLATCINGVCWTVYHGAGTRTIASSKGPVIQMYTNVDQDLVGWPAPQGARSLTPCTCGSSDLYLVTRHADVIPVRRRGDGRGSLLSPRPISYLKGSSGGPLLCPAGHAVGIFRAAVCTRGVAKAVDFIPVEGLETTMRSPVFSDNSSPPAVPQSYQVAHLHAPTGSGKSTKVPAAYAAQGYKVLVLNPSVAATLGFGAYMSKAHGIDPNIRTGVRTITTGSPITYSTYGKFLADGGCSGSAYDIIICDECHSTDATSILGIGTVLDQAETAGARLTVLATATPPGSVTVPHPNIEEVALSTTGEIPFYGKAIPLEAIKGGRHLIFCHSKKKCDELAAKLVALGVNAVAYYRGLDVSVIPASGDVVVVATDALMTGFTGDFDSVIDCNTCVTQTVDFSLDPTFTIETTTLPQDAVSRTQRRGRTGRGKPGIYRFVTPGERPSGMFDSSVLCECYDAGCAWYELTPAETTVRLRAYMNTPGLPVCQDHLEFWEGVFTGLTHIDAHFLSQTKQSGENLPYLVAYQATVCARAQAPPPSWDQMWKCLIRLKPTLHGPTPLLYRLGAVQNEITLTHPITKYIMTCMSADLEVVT
`C=CC[C@H](NC(=O)[C@@H]1CCc2c(Cl)nc(NCc3cccc(C(F)(F)F)c3)c(=O)n21)B1OC2CC3CC(C3(C)C)[C@@]2(C)O1` (stereo not given in full) displayed a concentration for half-maximal inhibition (IC50) of 4600 nM. `C=CC[C@H](NC(=O)[C@@H]1C[C@@H](Cc2ccccc2)c2c(Cl)nc(NCc3cccc(C(F)(F)F)c3)c(=O)n21)B1OC2CC3CC(C3(C)C)[C@@]2(C)O1` (stereo not given in full) had an IC50 of 260 nM. On the same count and under the same terms, the value for `C=CC[C@H](NC(=O)[C@@H]1C[C@@H](Cc2ccc(-c3ccccc3)cc2)c2c(Cl)nc(NCc3cccc(C(F)(F)F)c3)c(=O)n21)B1OC2CC3CC(C3(C)C)[C@@]2(C)O1` (stereo not given in full) was 60 nM; that for `C=CC[C@H](NC(=O)[C@@H]1C[C@@H](Cc2ccc(OC)cc2)c2c(Cl)nc(NCc3cccc(C(F)(F)F)c3)c(=O)n21)B1OC2CC3CC(C3(C)C)[C@@]2(C)O1` (stereo not given in full) was 50 nM; that for `C=CC[C@H](NC(=O)[C@@H]1C[C@@H](CCCc2cccc3ccccc23)c2c(Cl)nc(NCc3ccc(O)c(O)c3)c(=O)n21)B1OC2CC3CC(C3(C)C)[C@@]2(C)O1` (stereo not given in full) was 110 nM.

For `C=CC[C@H](NC(=O)[C@@H]1C[C@@H](CCCc2ccc3ccccc3c2)c2c(Cl)nc(NCc3ccccc3)c(=O)n21)B1OC2CC3CC(C3(C)C)[C@@]2(C)O1` (stereo not given in full), the half-maximal inhibitory concentration (IC50) is 240 nM. Consider `C=CC[C@H](NC(=O)[C@@H]1C[C@@H](CCCc2ccc3ccccc3c2)c2c(Cl)nc(NCC3CCCCC3)c(=O)n21)B1OC2CC3CC(C3(C)C)[C@@]2(C)O1` (stereo not given in full), for which it took 200 nM to reach half-maximal inhibition (IC50). On the same count and under the same terms, the result for `C=CC[C@H](NC(=O)[C@@H]1C[C@H](CCCc2ccccc2)c2c(Cl)nc(NCc3cccc(C(F)(F)F)c3)c(=O)n21)B1OC2CC3CC(C3(C)C)[C@@]2(C)O1` (stereo not given in full) reads 2000 nM. The same measure, in the same setting: the value for `C=CC[C@H](NC(=O)[C@@H]1C[C@@H](CCCc2ccc3ccccc3c2)c2c(Cl)nc(N)c(=O)n21)B1OC2CC3CC(C3(C)C)[C@@]2(C)O1` (stereo not given in full) was 190 nM; that for `CC[C@H](NC(=O)[C@@H]1C[C@@H](CCCc2ccc3ccccc3c2)c2c(Cl)nc(NCc3cccc(C(F)(F)F)c3)c(=O)n21)B1OC2CC3CC(C3(C)C)[C@@]2(C)O1` (stereo not given in full) was 20 nM; that for `C=CC[C@H](NC(=O)[C@@H]1C[C@@H](CCCc2ccc3ccccc3c2)c2c(Cl)nc(NCc3cccc(C(F)(F)F)c3)c(=O)n21)B1OC2CC3CC(C3(C)C)[C@@]2(C)O1` (stereo not given in full) was 20 nM.

For the compound `C=CC[C@H](NC(=O)[C@@H]1C[C@@H](CCCc2ccc3ccccc3c2)c2c(Cl)nc(NCc3ccccn3)c(=O)n21)B1OC2CC3CC(C3(C)C)[C@@]2(C)O1` (stereo not given in full), the half-inhibitory concentration (IC50) was determined as 90 nM. With `C=CC[C@H](NC(=O)[C@@H]1C[C@@H](Cc2cccc(C)c2)c2c(Cl)nc(NCc3cccc(C(F)(F)F)c3)c(=O)n21)B1OC2CC3CC(C3(C)C)[C@@]2(C)O1` (stereo not given in full), it took 400 nM to reach half-maximal inhibition (IC50). Still for that read-out and setting: the value for `C=CC[C@H](NC(=O)[C@@H]1C[C@H](CCCc2ccc3ccccc3c2)c2c(Cl)nc(NCc3cccc(C(F)(F)F)c3)c(=O)n21)B1OC2CC3CC(C3(C)C)[C@@]2(C)O1` (stereo not given in full) was 510 nM.

Turning to `C=CC[C@H](NC(=O)[C@@H]1C[C@@H](CCCc2ccc3ccccc3c2)c2c(Cl)nc(NCCCC)c(=O)n21)B1OC2CC3CC(C3(C)C)[C@@]2(C)O1` (stereo not given in full), the half-maximal inhibitory concentration (IC50) came to 160 nM. `C=CC[C@H](NC(=O)[C@@H]1C[C@@H](Cc2ccc(C)cc2)c2c(Cl)nc(NCc3cccc(C(F)(F)F)c3)c(=O)n21)B1OC2CC3CC(C3(C)C)[C@@]2(C)O1` (stereo not given in full) had an IC50 of 60 nM. On the same count and under the same terms, the value for `C=CC[C@H](NC(=O)[C@@H]1C[C@@H](CCCc2ccccc2)c2c(Cl)nc(NCc3cccc(C(F)(F)F)c3)c(=O)n21)B1OC2CC3CC(C3(C)C)[C@@]2(C)O1` (stereo not given in full) was 60 nM. The same measure, in the same setting: the value for `C=CC[C@H](NC(=O)[C@@H]1C[C@@H](CCCc2cccc3ccccc23)c2c(Cl)nc(NCCC)c(=O)n21)B1OC2CC3CC(C3(C)C)[C@@]2(C)O1` (stereo not given in full) was 180 nM; that for `C=CC[C@H](NC(=O)[C@@H]1C[C@@H](CCCc2cccc3ccccc23)c2c(Cl)nc(NCC(C)C)c(=O)n21)B1OC2CC3CC(C3(C)C)[C@@]2(C)O1` (stereo not given in full) was 170 nM. As to `C=CC[C@H](NC(=O)[C@@H]1C[C@@H](Cc2cccc(OC)c2)c2c(Cl)nc(NCc3cccc(C(F)(F)F)c3)c(=O)n21)B1OC2CC3CC(C3(C)C)[C@@]2(C)O1` (stereo not given in full), the half-maximal inhibitory concentration (IC50) came to 260 nM.

`C=CC[C@H](NC(=O)[C@@H]1C[C@@H](CCCc2ccc3ccccc3c2)c2c(Cl)nc(NCc3cccc(OC)c3)c(=O)n21)B1OC2CC3CC(C3(C)C)[C@@]2(C)O1` (stereo not given in full) had a half-maximal inhibitory concentration (IC50) of 60 nM.

Regarding `C=CC[C@H](NC(=O)[C@@H]1C[C@@H](CCCc2ccc3ccccc3c2)c2c(Cl)nc(NC)c(=O)n21)B1OC2CC3CC(C3(C)C)[C@@]2(C)O1` (stereo not given in full), inhibition was half-maximal at 320 nM (IC50).

On to `C=CC[C@H](NC(=O)[C@@H]1C[C@@H](CCCc2cccc3ccccc23)c2c(Cl)nc(NCc3cccc(F)c3)c(=O)n21)B1OC2CC3CC(C3(C)C)[C@@]2(C)O1` (stereo not given in full), for which the half-inhibitory concentration (IC50) came to 60 nM. The same measure, in the same setting: the value for `C=CC[C@H](NC(=O)[C@@H]1C[C@@H](CCCc2cccc3ccccc23)c2c(Cl)nc(NCC)c(=O)n21)B1OC2CC3CC(C3(C)C)[C@@]2(C)O1` (stereo not given in full) was 230 nM.

In the next experiment the target is T1, NS3. Briefly: Inhibitory concentration against HCV NS3 protease was determined. Also on record: species or system Hepacivirus hominis.
The compound `C=CC[C@H](NC(=O)[C@@H]1CCCN1C(=O)[C@@H](NC(=O)[C@@H](NC(=O)[C@H](CCC(=O)O)NC(=O)[C@H](CC(=O)O)NC(C)=O)C(C)C)C(C)C)B1OC2CC3CC(C3(C)C)[C@@]2(C)O1` (stereo not given in full) (Ac-DEVVP-X1) showed an inhibition constant (Ki) of 4 nM.

The IC50 is the concentration at which inhibition is half-maximal. Low values mean inhibition by little substance, high ones a need for much substance. In general, Ki refers to the equilibrium dissociation constant of an inhibitor or competing ligand from its target. Lower therefore signals higher affinity.
